pIC50: −log10 of the molar value.
Biological target: T1, CCR1 (Homo sapiens, UniProt P32246)
T1 construct: host or cells: Non-adherent cells
T1 sequence (P32246 1-355): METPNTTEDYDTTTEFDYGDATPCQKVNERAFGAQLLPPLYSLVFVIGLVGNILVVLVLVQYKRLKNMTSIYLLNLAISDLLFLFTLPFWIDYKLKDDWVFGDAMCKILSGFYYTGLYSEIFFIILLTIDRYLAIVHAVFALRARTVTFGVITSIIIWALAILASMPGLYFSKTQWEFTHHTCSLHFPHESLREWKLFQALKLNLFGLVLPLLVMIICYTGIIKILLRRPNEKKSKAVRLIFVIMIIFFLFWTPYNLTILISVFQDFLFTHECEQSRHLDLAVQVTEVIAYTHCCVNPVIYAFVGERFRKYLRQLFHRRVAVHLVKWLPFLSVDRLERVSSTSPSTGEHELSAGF
Assay: functional cellular assay measuring calcium flux in CCR1 transfected cells (block of CCR1/MIP-1α interaction)
Assay type: cell-based
Conditions: cells stably expressing recombinant CCR1 and G-alpha-16, MIP-1alpha added at EC80
Experimental: Compounds are assessed for the ability to block the interaction of CCR1 and MIP-1α in a functional cellular assay measuring calcium flux in CCR1 transfected cells.
Non-adherent cells purchased from Chemicon Corporation (HTS005C), stably expressing recombinant CCR1 and G-alpha-16 are grown in RPMI 1640 medium (Mediatech 10-080-CM) supplemented with 10% FBS, 0.4 mg/mL Geneticin and penicillin/streptomycin. On the day of the assay, the cells are loaded with Calcium 4 dye (Molecular Devices R7448) with Probenecid (Invitrogen P346400) at 8E5 cells/mL for 1 hour at room temperature. After 1 hour, they are seeded in a 384-well tissue culture-treated plate at a density of 20,000 cells/well. Appropriately diluted test compound is added to the well to achieve a top concentration of 3,000 nM (diluted 4-fold with 10 doses total). The final concentration of DMSO is 1%. The buffer is HBSS (Invitrogen 14025) with 20 mM HEPES at pH 7.4. The cells incubate 30 minutes at 37 C and then 30 minutes at room temperature. The plates are transferred to the […] FDSS6000 where MIP-1alpha in 1% BSA is added at the EC80 final concentration. All plates must be read within 4 hours of the start of dye-loading. Wells +/− MIP-1alpha containing diluted DMSO instead of compound serve as the controls. Data are analyzed using Activity Base software.

| SMILES | pIC50 |
| --- | --- |
| CS(=O)(=O)c1cc(C2(NC(=O)c3cccc4c3cnn4-c3ccc(F)cc3)CC2)ccn1 [1-(4-Fluoro-phenyl)-1H-indazole-4-carboxylic acid [1-(2-methanesulfonyl-pyridin-4-yl)-cyclopropyl]-amide] | 8.40 |
| O=C(NC1(c2ccccc2)CC1)c1cncc2c1cnn2-c1ccc(F)cc1 [1-(4-Fluoro-phenyl)-1H-pyrazolo[3,4-c]pyridine-4-carboxylic acid (1-phenyl-cyclopropyl)-amide] | 6.96 |
| O=C(NC1(c2ccnc(Br)c2)CCC1)c1cncc2c1cnn2-c1ccc(F)cc1 [1-(4-Fluoro-phenyl)-1H-pyrazolo[3,4-c]pyridine-4-carboxylic acid [1-(2-bromo-pyridin-4-yl)-cyclobutyl]-amide] | 8.52 |
| O=C(NC1(c2cccc(Br)c2)CC1)c1cncc2c1cnn2-c1ccc(F)cc1 [1-(4-Fluoro-phenyl)-1H-pyrazolo[3,4-c]pyridine-4-carboxylic acid [1-(3-bromo-phenyl)-cyclopropyl]-amide] | 9.00 |
| NC(=O)c1cccc(C2(NC(=O)c3cncc4c3cnn4-c3ccc(F)cc3)CC2)c1 [1-(4-Fluoro-phenyl)-1H-pyrazolo[3,4-c]pyridine-4-carboxylic acid [1-(3-carbamoyl-phenyl)-cyclopropyl]-amide] | 7.40 |
| O=C(NC1(c2cccc(Cl)c2)CC1)c1cncc2c1cnn2-c1ccc(F)cc1 [1-(4-Fluoro-phenyl)-1H-pyrazolo[3,4-c]pyridine-4-carboxylic acid [1-(3-chloro-phenyl)-cyclopropyl]-amide] | 8.52 |
| O=C(NC1(c2nc(C3CC3)no2)CC1)c1cncc2c1cnn2-c1ccc(F)cc1 [1-(4-Fluoro-phenyl)-1H-pyrazolo[3,4-c]pyridine-4-carboxylic acid [1-(3-cyclopropyl-1,2,4-oxadiazol-5-yl)-cyclopropyl]-amide] | 7.96 |
| CS(=O)(=O)c1cccc(C2(NC(=O)c3cncc4c3cnn4-c3ccc(F)cc3)CC2)c1 [1-(4-Fluoro-phenyl)-1H-pyrazolo[3,4-c]pyridine-4-carboxylic acid [1-(3-methanesulfonyl-phenyl)-cyclopropyl]-amide] | 9.00 |
| COc1cccc(C2(NC(=O)c3cncc4c3cnn4-c3ccc(F)cc3)CC2)c1 [1-(4-Fluoro-phenyl)-1H-pyrazolo[3,4-c]pyridine-4-carboxylic acid [1-(3-methoxy-phenyl)-cyclopropyl]-amide] | 8.30 |
| CNC(=O)c1cccc(C2(NC(=O)c3cncc4c3cnn4-c3ccc(F)cc3)CC2)c1 [1-(4-Fluoro-phenyl)-1H-pyrazolo[3,4-c]pyridine-4-carboxylic acid [1-(3-methylcarbamoyl-phenyl)-cyclopropyl]-amide] | 8.70 |
| NS(=O)(=O)c1cccc(C2(NC(=O)c3cncc4c3cnn4-c3ccc(F)cc3)CC2)c1 [1-(4-Fluoro-phenyl)-1H-pyrazolo[3,4-c]pyridine-4-carboxylic acid [1-(3-sulfamoyl-phenyl)-cyclopropyl]-amide] | 8.52 |
| O=C(NC1(c2cccc(C(F)(F)F)c2)CC1)c1cncc2c1cnn2-c1ccc(F)cc1 [1-(4-Fluoro-phenyl)-1H-pyrazolo[3,4-c]pyridine-4-carboxylic acid [1-(3-trifluoromethyl-phenyl)-cyclopropyl]-amide] | 9.40 |
| O=C(NC1(c2ccc(F)cc2)CCC1)c1cncc2c1cnn2-c1ccc(F)cc1 [1-(4-Fluoro-phenyl)-1H-pyrazolo[3,4-c]pyridine-4-carboxylic acid [1-(4-fluoro-phenyl)-cyclobutyl]-amide] | 7.21 |

Results, then the molecule that gave them:

| pIC50 | SMILES |
| --- | --- |
| 6.58 | O=C(NC1(c2nncs2)CC1)c1cncc2c1cnn2-c1ccc(F)cc1 [1-(4-Fluoro-phenyl)-1H-pyrazolo[3,4-c]pyridine-4-carboxylic acid (1-1,3,4-thiadiazol-2-yl-cyclopropyl)-amide] |
| 7.59 | Cc1cccc(C2(NC(=O)c3cncc4c3cnn4-c3ccc(F)cc3)CC2)c1 [1-(4-Fluoro-phenyl)-1H-pyrazolo[3,4-c]pyridine-4-carboxylic acid (1-m-tolyl-cyclopropyl)-amide] |
| 7.21 | Cc1ccccc1C1(NC(=O)c2cncc3c2cnn3-c2ccc(F)cc2)CC1 [1-(4-Fluoro-phenyl)-1H-pyrazolo[3,4-c]pyridine-4-carboxylic acid (1-o-tolyl-cyclopropyl)-amide] |
| 7.85 | Cc1ccc(C2(NC(=O)c3cncc4c3cnn4-c3ccc(F)cc3)CC2)cc1 [1-(4-Fluoro-phenyl)-1H-pyrazolo[3,4-c]pyridine-4-carboxylic acid (1-p-tolyl-cyclopropyl)-amide] |
| 7.06 | O=C(NC1(c2cccnc2)CC1)c1cncc2c1cnn2-c1ccc(F)cc1 [1-(4-Fluoro-phenyl)-1H-pyrazolo[3,4-c]pyridine-4-carboxylic acid (1-pyridin-3-yl-cyclopropyl)-amide] |
| 7.74 | O=C(NC1(c2ccncc2)CC1)c1cncc2c1cnn2-c1ccc(F)cc1 [1-(4-Fluoro-phenyl)-1H-pyrazolo[3,4-c]pyridine-4-carboxylic acid (1-pyridin-4-yl-cyclopropyl)-amide] |
| 9.30 | O=C(NC1(c2ccnc(Br)c2)CC1)c1cncc2c1cnn2-c1ccc(F)cc1 [1-(4-Fluoro-phenyl)-1H-pyrazolo[3,4-c]pyridine-4-carboxylic acid [1-(2-bromo-pyridin-4-yl)-cyclopropyl]-amide] |
| 7.00 | Cc1nc(C2(NC(=O)c3cncc4c3cnn4-c3ccc(F)cc3)CC2)cs1 [1-(4-Fluoro-phenyl)-1H-pyrazolo[3,4-c]pyridine-4-carboxylic acid [1-(2-methyl-thiazol-4-yl)-cyclopropyl]-amide] |
| 7.89 | O=C(NC1(c2cccc(F)c2)CC1)c1cncc2c1cnn2-c1ccc(F)cc1 [1-(4-Fluoro-phenyl)-1H-pyrazolo[3,4-c]pyridine-4-carboxylic acid [1-(3-fluoro-phenyl)-cyclopropyl]-amide] |
| 6.54 | NCc1ccnc(C2(NC(=O)c3cncc4c3cnn4-c3ccc(F)cc3)CC2)c1 [1-(4-Fluoro-phenyl)-1H-pyrazolo[3,4-c]pyridine-4-carboxylic acid [1-(4-aminomethyl-pyridin-2-yl)-cyclopropyl]-amide] |
| 8.40 | O=C(NC1(c2ccc(Br)cc2)CC1)c1cncc2c1cnn2-c1ccc(F)cc1 [1-(4-Fluoro-phenyl)-1H-pyrazolo[3,4-c]pyridine-4-carboxylic acid [1-(4-bromo-phenyl)-cyclopropyl]-amide] |
| 8.00 | O=C(NC1(c2ccc(Cl)cc2)CC1)c1cncc2c1cnn2-c1ccc(F)cc1 [1-(4-Fluoro-phenyl)-1H-pyrazolo[3,4-c]pyridine-4-carboxylic acid [1-(4-chloro-phenyl)-cyclopropyl]-amide] |
| 7.77 | O=C(NC1(c2cc(Cl)ccn2)CC1)c1cncc2c1cnn2-c1ccc(F)cc1 [1-(4-Fluoro-phenyl)-1H-pyrazolo[3,4-c]pyridine-4-carboxylic acid [1-(4-chloro-pyridin-2-yl)-cyclopropyl]-amide] |
| 7.12 | O=C(NC1(c2ccc(F)cc2)CC1)c1cncc2c1cnn2-c1ccc(F)cc1 [1-(4-Fluoro-phenyl)-1H-pyrazolo[3,4-c]pyridine-4-carboxylic acid [1-(4-fluoro-phenyl)-cyclopropyl]-amide] |
| 8.70 | O=C(NC1(c2cc(I)ccn2)CC1)c1cncc2c1cnn2-c1ccc(F)cc1 [1-(4-Fluoro-phenyl)-1H-pyrazolo[3,4-c]pyridine-4-carboxylic acid [1-(4-iodo-pyridin-2-yl)-cyclopropyl]-amide] |

From patent US9056858B2, “Indazole and pyrazolopyridine compounds as CCR1 receptor antagonists” (Boehringer Ingelheim International GmbH, priority 2009, dated 2015)
